Drawing on US20210253575A1, “PYRROLIDINE AMINE COMPOUNDS FOR THE TREATMENT OF AUTOIMMUNE DISEASE” (Hoffmann-La Roche Inc., priority 2018, published 2021), this text covers IC50 for 22 molecules.

A word on the pIC50: it is −log10 of the IC50, conventionally taken in molar units. High values mean a small IC50, low ones a large IC50.

pIC50: −log10 of the molar value.

In the assay the target is T1, human TLR7 (Homo sapiens, UniProt Q9NYK1).
T1 sequence (Q9NYK1 27-1049): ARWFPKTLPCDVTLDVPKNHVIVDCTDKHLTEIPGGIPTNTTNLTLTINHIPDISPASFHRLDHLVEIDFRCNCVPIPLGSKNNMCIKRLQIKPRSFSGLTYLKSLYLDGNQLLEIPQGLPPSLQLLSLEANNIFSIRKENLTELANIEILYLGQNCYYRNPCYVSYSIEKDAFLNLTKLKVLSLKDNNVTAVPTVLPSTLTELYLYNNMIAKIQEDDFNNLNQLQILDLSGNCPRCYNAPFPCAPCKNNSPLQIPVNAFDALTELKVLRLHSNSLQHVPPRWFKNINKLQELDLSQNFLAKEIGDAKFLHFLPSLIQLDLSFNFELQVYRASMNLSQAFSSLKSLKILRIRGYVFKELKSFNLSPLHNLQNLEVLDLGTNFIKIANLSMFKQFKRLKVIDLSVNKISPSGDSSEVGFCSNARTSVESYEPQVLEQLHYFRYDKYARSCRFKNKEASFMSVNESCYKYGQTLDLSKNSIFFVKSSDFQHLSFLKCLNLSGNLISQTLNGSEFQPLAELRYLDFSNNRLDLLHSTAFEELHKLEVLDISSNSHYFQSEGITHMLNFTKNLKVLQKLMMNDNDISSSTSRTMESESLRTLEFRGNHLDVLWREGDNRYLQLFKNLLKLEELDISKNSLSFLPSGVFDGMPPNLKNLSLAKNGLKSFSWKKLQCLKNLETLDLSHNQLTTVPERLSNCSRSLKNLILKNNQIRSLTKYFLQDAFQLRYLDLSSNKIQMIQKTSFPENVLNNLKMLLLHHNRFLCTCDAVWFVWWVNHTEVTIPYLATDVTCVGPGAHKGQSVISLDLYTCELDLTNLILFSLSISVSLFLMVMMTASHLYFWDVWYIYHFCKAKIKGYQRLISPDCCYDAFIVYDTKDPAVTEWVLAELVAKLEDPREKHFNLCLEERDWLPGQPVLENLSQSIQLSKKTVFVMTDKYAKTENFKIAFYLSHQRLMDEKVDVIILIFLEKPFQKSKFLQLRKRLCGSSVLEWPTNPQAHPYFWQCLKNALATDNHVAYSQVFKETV
Nature of the assay: HEK293-Blue-hTLR-7 cells assay (SEAP reporter, R848 stimulation). Conditions: HEK293-Blue-hTLR7 cells, R848 ligand, 20 hrs incubation. In kind it is cell-based. The procedure:
The following tests were carried out in order to determine the activity of the compounds of formula (I) in HEK293-Blue-hTLR-7/8/9 cells assay.
HEK293-Blue-hTLR-7 Cells Assay:
A stable HEK293-Blue-hTLR-7 cell line was purchased from InvivoGen (Cat. #: hkb-htlr7, San Diego, Calif., USA). These cells were originally designed for studying the stimulation of human TLR7 by monitoring the activation of NF-κB. A SEAP (secreted embryonic alkaline phosphatase) reporter gene was placed under the control of the IFN-β minimal promoter fused to five NF-κB and AP-1-binding sites. The SEAP was induced by activating NF-κB and AP-1 via stimulating HEK-Blue hTLR7 cells with TLR7 ligands. Therefore the reporter expression was declined by TLR7 antagonist under the stimulation of a ligand, such as R848 (Resiquimod), for incubation of 20 hrs. The cell culture supernatant SEAP reporter activity was determined using QUANTI-Blue™ kit (Cat. #: rep-qb1, Invivogen, San Diego, Ca, USA) at a wavelength of 640 nm, a detection medium that turns purple or blue in the presence of alkaline phosphatase.
HEK293-Blue-hTLR7 cells were incubated at a density of 250,000-450,000 cells/mL in a volume of 170 μL in a 96-well plate in Dulbecco's Modified Eagle's medium (DMEM) containing 4.5 g/L glucose, 50 U/mL penicillin, […], […], 2 mM L-glutamine, 10% (v/v) heat-inactivated fetal bovine serum with addition of 20 μL test compound in a serial dilution in the presence of final DMSO at 1% and 10 μL of 20 uM R848 in above DMEM, perform incubation under 37° C. in a CO2 incubator for 20 hrs. Then 20 μL of the supernatant from each well was incubated with 180 μL Quanti-blue substrate solution at 37° C. for 2 hrs and the absorbance was read at 620-655 nm using a spectrophotometer. The signalling pathway that TLR7 activation leads to downstream NF-κB activation has been widely accepted, and therefore similar reporter assay was modified for evaluating TLR7 antagonist.
`N#Cc1ccc(N2C[C@H](CN3CCC4(CCNC4)CC3)[C@@H](C(F)(F)F)C2)c2cccnc12` [Example 54, 5-[(3S,4R)-3-(2,8-Diazaspiro[4.5]decan-8-ylmethyl)-4-(trifluoromethyl)pyrrolidin-1-yl]quinoline-8-carbonitrile] gave a pIC50 of 7.04.
`N#Cc1ccc(N2C[C@H](CN3CCC(N)C(F)(F)C3)[C@@H](C(F)(F)F)C2)c2nccnc12` (stereo partly drawn) [Example 64, 8-[(3S,4R)-3-[(4-amino-3,3-difluoro-1-piperidyl)methyl]-4-(trifluoromethyl)pyrrolidin-1-yl]quinoxaline-5-carbonitrile]: the pIC50 is 7.44.
As for `N#Cc1ccc(N2CC(CN3CCOC4(CCNCC4)C3)C3(CC3)C2)c2nccnc12` (stereo not shown) [Example 67, 8-[7-(1-Oxa-4,9-diazaspiro[5.5]undecan-4-ylmethyl)-5-azaspiro[2.4]heptan-5-yl]quinoxaline-5-carbonitrile], the figure is 6.88; as for `N#Cc1ccc(N2CC(CN3CCC4(CCNCC4)CC3)C3(CC3)C2)c2nccnc12` (stereo not shown) [Example 16, 8-[7-(3,9-Diazaspiro[5.5]undecan-3-ylmethyl)-5-azaspiro[2.4]heptan-5-yl]quinoxaline-5-carbonitrile], 6.95; as for `N#Cc1ccc(N2C[C@H](CN3CCC(N)CC3)[C@@H](C(F)(F)F)C2)c2nccnc12` [Example 51, 8-[(3S,4R)-3-[(4-amino-1-piperidyl)methyl]-4-(trifluoromethyl)pyrrolidin-1-yl]quinoxaline-5-carbonitrile], 7.05.
The same measure for `N#Cc1ccc(N2C[C@@H](CN3CCC4(CCNCC4)CC3)[C@H](C3CC3)C2)c2cccnc12` (relative stereo) [Example 28, 5-[Trans-3-cyclopropyl-4-(3,9-diazaspiro[5.5]undecan-3-ylmethyl)pyrrolidin-1-yl]quinoline-8-carbonitrile]: 6.45.
As for `C[C@@H]1CN(c2ccc(C(F)(F)F)c3nccnc23)C[C@H]1CN1CCC2(CCNCC2)CC1` (relative stereo) [Example 21, 3-[[Trans-4-methyl-1-[8-(trifluoromethyl)quinoxalin-5-yl]pyrrolidin-3-yl]methyl]-3,9-diazaspiro[5.5]undecane], the figure is 6.72.
`N#Cc1ccc(N2CC(CN3C4CCC3CC(N)C4)C3(CC3)C2)c2nccnc12` (stereo not shown) [Example 25, 8-[7-[(3-Amino-8-azabicyclo[3.2.1]octan-8-yl)methyl]-5-azaspiro[2.4]heptan-5-yl]quinoxaline-5-carbonitrile] showed a pIC50 of 6.51.
As for `C[C@H]1CN(c2ccc(C#N)c3nccnc23)C[C@@H]1CN1CCC2(CCNC2)C1` (stereo partly drawn) [Example 30, 8-[(3S,4R)-3-(2,7-diazaspiro[4.4]nonan-2-ylmethyl)-4-methyl-pyrrolidin-1-yl]quinoxaline-5-carbonitrile], the figure is 6.42; as for `C[C@H]1CN(C[C@H]2CN(c3ccc(C#N)c4nccnc34)C[C@@H]2C(F)(F)F)CC[C@H]1N` [Example 72, 8-[(3S,4R)-3-[[(3S,4R)-4-amino-3-methyl-1-piperidyl]methyl]-4-(trifluoromethyl)pyrrolidin-1-yl]quinoxaline-5-carbonitrile], 7.89.
With `N#Cc1ccc(N2C[C@H](CN3CC4(CC(N)C4)C3)[C@@H](C(F)(F)F)C2)c2nccnc12` [Example 47, 8-[(3S,4R)-3-[(6-amino-2-azaspiro[3.3]heptan-2-yl)methyl]-4-(trifluoromethyl)pyrrolidin-1-yl]quinoxaline-5-carbonitrile], the pIC50 is 7.06.
The same measure for `N#Cc1ccc(N2CC(CN3CCC(N4CCOCC4)CC3)C3(CC3)C2)c2nccnc12` (stereo not shown) [Example 58, 8-[7-[(4-Morpholino-1-piperidyl)methyl]-5-azaspiro[2.4]heptan-5-yl]quinoxaline-5-carbonitrile]: 6.50.
The same measure for `N#Cc1ccc(N2C[C@H](CN3CC4(CCCNC4)C3)[C@@H](C(F)(F)F)C2)c2cccnc12` [Example 8, 5-[(3S,7R)-3-(2,8-diazaspiro[3.5]nonan-2-ylmethyl)-4-(trifluoromethyl)pyrrolidin-1-yl]quinoline-8-carbonitrile]: 7.24; for `N#Cc1ccc(N2C[C@H](CN3CCC4(CCNCC4)CC3)[C@@H](C(F)(F)F)C2)c2nccnc12` [Example 1, 8-[(3S,4R)-3-(3,9-diazaspiro[5.5]undecan-3-ylmethyl)-4-(trifluoromethyl)pyrrolidin-1-yl]quinoxaline-5-carbonitrile]: 8.30.
The same measure for `N#Cc1ccc(N2CC(CN3C[C@H]4CNC[C@H]4C3)C3(CC3)C2)c2nccnc12` (stereo partly drawn) [Example 18, 8-[7-[[(3aR,6aS)-2,3,3a,4,6,6a-hexahydro-H-pyrrolo[3,4-c]pyrrol-5-yl]methyl]-5-azaspiro[2.4]heptan-5-yl]quinoxaline-5-carbonitrile]: 6.86.
In the case of `CN(C)C1CCN(C[C@H]2CN(c3ccc(C#N)c4nccnc34)C[C@@H]2C(F)(F)F)CC1` [Example 80, 8-[(3S,4R)-3-[[4-(dimethylamino)-1-piperidyl]methyl]-4-(trifluoromethyl)pyrrolidin-1-yl]quinoxaline-5-carbonitrile], the pIC50 is 7.85.
As for `FC(F)(F)c1ccc(N2CC(CN3C[C@H]4CNC[C@H]4C3)C3(CC3)C2)c2nccnc12` (stereo partly drawn) [Example 41, 5-[7-[[(3aR,6aS)-2,3,3a,4,6,6a-hexahydro-H-pyrrolo[3,4-c]pyrrol-5-yl]methyl]-5-azaspiro[2.4]heptan-5-yl]-8-(trifluoromethyl)quinoxaline], the pIC50 was 6.09.
As for `N#Cc1ccc(N2C[C@H](CN3CC4CCC(C3)C4N)[C@@H](C(F)(F)F)C2)c2nccnc12` (stereo partly drawn) [Example 73, 8-[(3S,4R)-3-[(8-amino-3-azabicyclo[3.2.1]octan-3-yl)methyl]-4-(trifluoromethyl)pyrrolidin-1-yl]quinoxaline-5-carbonitrile], the figure is 7.70.
As for `CNCC1CCN(C[C@H]2CN(c3ccc(C#N)c4nccnc34)C[C@@H]2C(F)(F)F)CC1` [Example 81, 8-[(3S,4R)-3-[[4-(methylaminomethyl)-1-piperidyl]methyl]-4-(trifluoromethyl)pyrrolidin-1-yl]quinoxaline-5-carbonitrile], the figure is 7.49; as for `N#Cc1ccc(N2C[C@H](CN3CCC(CN)CC3)[C@@H](C(F)(F)F)C2)c2nccnc12` [Example 74, 8-[(3S,4R)-3-[[4-(aminomethyl)-1-piperidyl]methyl]-4-(trifluoromethyl)pyrrolidin-1-yl]quinoxaline-5-carbonitrile], 7.55.
In turn, `N#Cc1ccc(N2C[C@H](CN3CC4CCC3CN4)[C@@H](C(F)(F)F)C2)c2nccnc12` (stereo partly drawn) [Example 77, 8-[(3S,4R)-3-(2,5-diazabicyclo[2.2.2]octan-2-ylmethyl)-4-(trifluoromethyl)pyrrolidin-1-yl]quinoxaline-5-carbonitrile] showed a pIC50 of 7.89.
As for `N#Cc1ccc(N2C[C@H](CN3CCC(N4CCCC4)CC3)[C@@H](C(F)(F)F)C2)c2nccnc12` [Example 60, 8-[(3S,4R)-3-[(4-Pyrrolidin-1-yl-1-piperidyl)methyl]-4-(trifluoromethyl)pyrrolidin-1-yl]quinoxaline-5-carbonitrile], the figure is 7.54.
